Experiments:
[1] = tested on: HT-29 xenograft colon carcinoma model; assay: HT-29 xenograft tumor volume, Compound A01 vs celecoxib (Example 5); format: in vivo, CB17SCID mice
Procedure: (§1) HT-29 cells were prepared and implanted by standard methods using the same procedure as Example 1.
(§2) 42 CB17SCID mice were implanted with 2.5×10^6 HT-29 cells.
(§3) Mouse weight and tumor volume measurements were taken on days 0, 3, 6, 9, 12, 15, 18, 21, and 22 following randomization. After 22 days dosing, the blood from each animal was collected at 2 hours and 6 hours post dose.

[2] = tested on: PGE-2; assay: Tumoral PGE-2 in HT-29 tumors (Example 5); format: in vivo, CB17SCID mice; conditions: HT-29 tumor, day 24
Procedure: as §1, §2, §3

In the case of `[2H]C([2H])([2H])c1cc(Br)cc2c1O[C@H](C(F)(F)F)C(C(=O)O)=C2` [Compound A01, (S)-6-bromo-8-trideuteromethyl-2-(trifluoromethyl)-2H-chromene-3-carboxylic acid], the “Tumor Volume” value ([1]; Day 0, 0.1 mg/kg oral daily) is reported as 65.8 mm^3, the “Tumor Volume” value ([1]; Day 0, 0.3 mg/kg oral daily) is reported as 70.9 mm^3 and the “Tumor Volume” value ([1]; Day 0, 1 mg/kg oral daily) is reported as 68.5 mm^3. For the same molecule, the “Tumor Volume” value ([1]; Day 0, 3 mg/kg oral daily) was 68.4 mm^3, the “Tumor Volume” value ([1]; Day 0, 10 mg/kg oral daily) was 69.0 mm^3 and the “Tumor Volume” value ([1]; Day 3, 0.1 mg/kg oral daily) was 88.5 mm^3. The “Tumor Volume” value ([1]; Day 3, 0.3 mg/kg oral daily) was 83.8 mm^3, the “Tumor Volume” value ([1]; Day 3, 1 mg/kg oral daily) was 85.2 mm^3 and the “Tumor Volume” value ([1]; Day 3, 3 mg/kg oral daily) was 80.3 mm^3. For the same molecule, the “Tumor Volume” value ([1]; Day 3, 10 mg/kg oral daily) was 83.9 mm^3, the “Tumor Volume” value ([1]; Day 6, 0.1 mg/kg oral daily) was 165.0 mm^3 and the “Tumor Volume” value ([1]; Day 6, 0.3 mg/kg oral daily) was 132.9 mm^3. For the same molecule, the “Tumor Volume” value ([1]; Day 6, 1 mg/kg oral daily) was 152.8 mm^3, the “Tumor Volume” value ([1]; Day 6, 3 mg/kg oral daily) was 121.9 mm^3 and the “Tumor Volume” value ([1]; Day 6, 10 mg/kg oral daily) was 107.7 mm^3. For the same molecule, the “Tumor Volume” value ([1]; Day 9, 0.1 mg/kg oral daily) was 283.1 mm^3, the “Tumor Volume” value ([1]; Day 9, 0.3 mg/kg oral daily) was 231.5 mm^3 and the “Tumor Volume” value ([1]; Day 9, 1 mg/kg oral daily) was 239.8 mm^3. For the same molecule, the “Tumor Volume” value ([1]; Day 9, 3 mg/kg oral daily) was 190.1 mm^3, the “Tumor Volume” value ([1]; Day 9, 10 mg/kg oral daily) was 176.0 mm^3 and the “Tumor Volume” value ([1]; Day 12, 0.1 mg/kg oral daily) was 360.3 mm^3. For the same molecule, the “Tumor Volume” value ([1]; Day 12, 0.3 mg/kg oral daily) was 298.2 mm^3, the “Tumor Volume” value ([1]; Day 12, 1 mg/kg oral daily) was 311.1 mm^3 and the “Tumor Volume” value ([1]; Day 12, 3 mg/kg oral daily) was 279.5 mm^3. The “Tumor Volume” value ([1]; Day 12, 10 mg/kg oral daily) was 257.7 mm^3, the “Tumor Volume” value ([1]; Day 15, 0.1 mg/kg oral daily) was 416.8 mm^3 and the “Tumor Volume” value ([1]; Day 15, 0.3 mg/kg oral daily) was 350.7 mm^3. For the same molecule, the “Tumor Volume” value ([1]; Day 15, 1 mg/kg oral daily) was 364.8 mm^3, the “Tumor Volume” value ([1]; Day 15, 3 mg/kg oral daily) was 329.1 mm^3 and the “Tumor Volume” value ([1]; Day 15, 10 mg/kg oral daily) was 332.0 mm^3. The “Tumor Volume” value ([1]; Day 18, 0.1 mg/kg oral daily) was 640.9 mm^3, the “Tumor Volume” value ([1]; Day 18, 0.3 mg/kg oral daily) was 530.8 mm^3 and the “Tumor Volume” value ([1]; Day 18, 1 mg/kg oral daily) was 532.6 mm^3. For the same molecule, the “Tumor Volume” value ([1]; Day 18, 3 mg/kg oral daily) was 445.1 mm^3, the “Tumor Volume” value ([1]; Day 18, 10 mg/kg oral daily) was 357.3 mm^3 and the “Tumor Volume” value ([1]; Day 21, 0.1 mg/kg oral daily) was 900.4 mm^3. For the same molecule, the “Tumor Volume” value ([1]; Day 21, 0.3 mg/kg oral daily) was 723.5 mm^3, the “Tumor Volume” value ([1]; Day 21, 1 mg/kg oral daily) was 730.9 mm^3 and the “Tumor Volume” value ([1]; Day 21, 3 mg/kg oral daily) was 622.8 mm^3. The “Tumor Volume” value ([1]; Day 21, 10 mg/kg oral daily) was 453.6 mm^3, the “Tumor Volume” value ([1]; Day 22, 0.1 mg/kg oral daily) was 987.7 mm^3 and the “Tumor Volume” value ([1]; Day 22, 0.3 mg/kg oral daily) was 753.5 mm^3. The “Tumor Volume” value ([1]; Day 22, 1 mg/kg oral daily) was 772.1 mm^3, the “Tumor Volume” value ([1]; Day 22, 3 mg/kg oral daily) was 699.4 mm^3 and the “Tumor Volume” value ([1]; Day 22, 10 mg/kg oral daily) was 561.8 mm^3. For the same molecule, the “Mean PGE-2 (tumoral)” value ([2]; 0.1 mg/kg) was 203.9 ± 157.9 ng/g, the “Mean PGE-2 (tumoral)” value ([2]; 0.3 mg/kg) was 237.3 ± 119.8 ng/g and the “Mean PGE-2 (tumoral)” value ([2]; 1 mg/kg) was 90.7 ± 105.1 ng/g. The “Mean PGE-2 (tumoral)” value ([2]; 3 mg/kg) was 94.3 ± 78.4 ng/g and the “Mean PGE-2 (tumoral)” value ([2]; 10 mg/kg) was 45.5 ± 73.4 ng/g.

From patent publication US12544356B2, “Combination of a chromene compound and a second active agent” (EUCLISES PHARMACEUTICALS, INC., priority 2016, dated 2026)
